From paper PMC6199744, “Development of Chemical Proteomics for the Folateome and Analysis of the Kinetoplastid Folateome” (ACS Infectious Diseases, 2018)
Where two headings read alike, the source gives them in different places.

Experiments:
Format in all cases: binding
[1] = biological target: T1, HeLa cell extract proteins (Homo sapiens, UniProt P11498)
T1 construct: endogenous in cells; host or cells: HeLa cell extract
T1 sequence (P11498 21-1178): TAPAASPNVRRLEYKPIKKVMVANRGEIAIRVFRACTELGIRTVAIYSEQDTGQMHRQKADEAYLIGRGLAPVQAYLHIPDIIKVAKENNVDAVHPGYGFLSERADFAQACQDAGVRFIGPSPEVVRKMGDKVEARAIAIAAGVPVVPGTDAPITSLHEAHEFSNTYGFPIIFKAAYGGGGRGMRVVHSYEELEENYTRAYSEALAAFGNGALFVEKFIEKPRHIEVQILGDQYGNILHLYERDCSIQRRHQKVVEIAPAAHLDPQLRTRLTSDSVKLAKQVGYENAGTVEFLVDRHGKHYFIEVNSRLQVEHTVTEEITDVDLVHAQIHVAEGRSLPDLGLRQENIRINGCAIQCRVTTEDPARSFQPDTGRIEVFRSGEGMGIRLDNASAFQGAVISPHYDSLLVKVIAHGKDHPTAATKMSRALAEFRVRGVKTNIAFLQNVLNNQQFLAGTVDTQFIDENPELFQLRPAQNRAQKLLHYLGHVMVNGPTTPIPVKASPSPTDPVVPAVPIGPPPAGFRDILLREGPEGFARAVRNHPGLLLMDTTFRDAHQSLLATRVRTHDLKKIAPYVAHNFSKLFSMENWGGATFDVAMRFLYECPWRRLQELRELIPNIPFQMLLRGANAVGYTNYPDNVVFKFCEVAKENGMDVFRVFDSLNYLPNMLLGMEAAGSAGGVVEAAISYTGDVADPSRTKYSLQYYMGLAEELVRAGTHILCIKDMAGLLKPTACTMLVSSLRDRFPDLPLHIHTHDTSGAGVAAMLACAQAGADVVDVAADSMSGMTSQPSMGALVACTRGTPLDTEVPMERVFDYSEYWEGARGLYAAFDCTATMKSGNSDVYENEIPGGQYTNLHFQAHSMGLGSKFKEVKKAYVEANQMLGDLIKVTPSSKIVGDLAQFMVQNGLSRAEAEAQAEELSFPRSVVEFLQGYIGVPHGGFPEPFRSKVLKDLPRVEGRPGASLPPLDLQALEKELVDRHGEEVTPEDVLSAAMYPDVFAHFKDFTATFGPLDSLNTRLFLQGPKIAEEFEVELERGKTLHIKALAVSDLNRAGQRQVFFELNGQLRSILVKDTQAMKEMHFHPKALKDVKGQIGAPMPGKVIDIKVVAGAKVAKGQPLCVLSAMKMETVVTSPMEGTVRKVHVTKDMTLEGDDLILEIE

[2] = biological target: T2, HeLa cell extract proteins (Homo sapiens, UniProt P52292)
T2 construct: endogenous in cells; host or cells: HeLa cell extract

[3] = biological target: T3, HeLa cell extract proteins (Homo sapiens, UniProt Q96JI7)
T3 construct: endogenous in cells; host or cells: HeLa cell extract
T3 sequence (Q96JI7 whole entry): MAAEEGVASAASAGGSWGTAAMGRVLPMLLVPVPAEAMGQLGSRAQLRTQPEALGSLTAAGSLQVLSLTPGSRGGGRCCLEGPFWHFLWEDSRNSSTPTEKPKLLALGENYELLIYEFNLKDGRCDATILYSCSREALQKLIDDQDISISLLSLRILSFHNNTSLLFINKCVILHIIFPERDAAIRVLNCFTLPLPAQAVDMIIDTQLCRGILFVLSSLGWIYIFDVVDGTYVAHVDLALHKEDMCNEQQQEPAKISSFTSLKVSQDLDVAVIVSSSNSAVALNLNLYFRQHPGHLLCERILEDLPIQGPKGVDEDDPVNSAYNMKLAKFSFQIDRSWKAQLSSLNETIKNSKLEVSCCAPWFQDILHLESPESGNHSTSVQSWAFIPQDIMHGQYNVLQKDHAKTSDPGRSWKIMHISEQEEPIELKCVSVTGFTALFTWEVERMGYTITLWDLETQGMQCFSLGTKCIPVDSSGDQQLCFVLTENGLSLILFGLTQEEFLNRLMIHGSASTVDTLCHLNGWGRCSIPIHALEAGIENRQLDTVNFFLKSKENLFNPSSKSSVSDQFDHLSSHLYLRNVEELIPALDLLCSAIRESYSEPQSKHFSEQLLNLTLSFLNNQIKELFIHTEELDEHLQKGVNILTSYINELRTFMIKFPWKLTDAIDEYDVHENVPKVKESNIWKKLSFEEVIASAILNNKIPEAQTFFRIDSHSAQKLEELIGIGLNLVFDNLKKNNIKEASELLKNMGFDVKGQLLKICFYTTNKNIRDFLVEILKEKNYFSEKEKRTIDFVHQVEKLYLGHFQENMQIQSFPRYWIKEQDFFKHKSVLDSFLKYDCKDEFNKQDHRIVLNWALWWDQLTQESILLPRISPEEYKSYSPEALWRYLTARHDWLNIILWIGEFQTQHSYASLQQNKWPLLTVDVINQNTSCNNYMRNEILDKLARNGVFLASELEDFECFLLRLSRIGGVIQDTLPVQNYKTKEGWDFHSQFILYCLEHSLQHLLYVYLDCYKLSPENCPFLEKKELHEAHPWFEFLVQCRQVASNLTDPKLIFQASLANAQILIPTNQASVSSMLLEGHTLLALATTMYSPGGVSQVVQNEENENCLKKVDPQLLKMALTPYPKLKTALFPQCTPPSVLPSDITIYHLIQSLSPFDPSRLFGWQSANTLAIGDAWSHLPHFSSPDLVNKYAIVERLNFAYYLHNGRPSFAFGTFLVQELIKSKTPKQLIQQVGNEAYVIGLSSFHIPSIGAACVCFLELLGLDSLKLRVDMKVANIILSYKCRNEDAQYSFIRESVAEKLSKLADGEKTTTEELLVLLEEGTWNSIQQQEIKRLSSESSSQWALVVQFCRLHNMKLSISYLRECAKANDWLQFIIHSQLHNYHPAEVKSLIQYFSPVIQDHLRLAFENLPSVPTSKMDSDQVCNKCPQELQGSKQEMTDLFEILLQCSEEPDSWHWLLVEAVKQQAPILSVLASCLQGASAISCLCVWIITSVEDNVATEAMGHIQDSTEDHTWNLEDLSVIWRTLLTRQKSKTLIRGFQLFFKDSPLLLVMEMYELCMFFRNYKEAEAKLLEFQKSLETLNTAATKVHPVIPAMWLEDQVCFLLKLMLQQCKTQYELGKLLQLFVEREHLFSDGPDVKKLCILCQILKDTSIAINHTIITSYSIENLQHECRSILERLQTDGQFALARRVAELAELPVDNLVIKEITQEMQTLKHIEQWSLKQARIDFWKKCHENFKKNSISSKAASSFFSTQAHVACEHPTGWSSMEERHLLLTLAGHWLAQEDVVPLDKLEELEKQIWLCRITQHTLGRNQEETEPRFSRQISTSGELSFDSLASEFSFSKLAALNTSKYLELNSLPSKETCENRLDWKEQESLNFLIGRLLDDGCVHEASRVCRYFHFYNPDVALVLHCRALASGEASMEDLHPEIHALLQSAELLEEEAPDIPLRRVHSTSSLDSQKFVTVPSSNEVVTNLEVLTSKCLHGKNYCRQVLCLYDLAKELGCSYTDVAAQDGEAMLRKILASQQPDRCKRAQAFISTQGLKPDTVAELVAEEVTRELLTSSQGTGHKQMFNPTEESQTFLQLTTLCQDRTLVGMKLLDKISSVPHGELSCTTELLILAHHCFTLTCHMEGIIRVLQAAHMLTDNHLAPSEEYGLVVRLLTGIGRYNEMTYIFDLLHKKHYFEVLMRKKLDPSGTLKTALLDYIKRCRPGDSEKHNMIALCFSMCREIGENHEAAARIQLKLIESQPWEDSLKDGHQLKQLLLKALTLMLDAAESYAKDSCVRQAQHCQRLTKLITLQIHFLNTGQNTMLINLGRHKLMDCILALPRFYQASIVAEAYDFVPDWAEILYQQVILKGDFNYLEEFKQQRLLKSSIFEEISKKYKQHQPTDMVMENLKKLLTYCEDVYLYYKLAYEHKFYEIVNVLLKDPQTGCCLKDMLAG

[4] = biological target: T4, HeLa cell extract proteins (Homo sapiens, UniProt O75323); details: protein GBAS; HeLa
T4 construct: endogenous in cells; host or cells: HeLa cell extract
T4 sequence (O75323 24-286): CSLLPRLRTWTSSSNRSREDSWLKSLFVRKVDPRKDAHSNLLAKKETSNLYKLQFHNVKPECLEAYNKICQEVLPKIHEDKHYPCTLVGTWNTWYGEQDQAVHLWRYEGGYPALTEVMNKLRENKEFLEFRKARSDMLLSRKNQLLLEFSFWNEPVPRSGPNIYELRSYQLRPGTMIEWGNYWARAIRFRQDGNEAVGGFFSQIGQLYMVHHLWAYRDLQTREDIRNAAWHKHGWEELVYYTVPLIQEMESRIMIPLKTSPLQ

[5] = biological target: T5, HeLa cell extract proteins (Homo sapiens, UniProt P82933); details: protein MRPS9; HeLa
T5 construct: endogenous in cells; host or cells: HeLa cell extract

[6] = biological target: T6, HeLa cell extract proteins (Homo sapiens, UniProt Q9Y5A9); details: captured protein YTHDF2; HeLa
T6 construct: endogenous in cells; host or cells: HeLa cell extract
T6 sequence (Q9Y5A9 1-579): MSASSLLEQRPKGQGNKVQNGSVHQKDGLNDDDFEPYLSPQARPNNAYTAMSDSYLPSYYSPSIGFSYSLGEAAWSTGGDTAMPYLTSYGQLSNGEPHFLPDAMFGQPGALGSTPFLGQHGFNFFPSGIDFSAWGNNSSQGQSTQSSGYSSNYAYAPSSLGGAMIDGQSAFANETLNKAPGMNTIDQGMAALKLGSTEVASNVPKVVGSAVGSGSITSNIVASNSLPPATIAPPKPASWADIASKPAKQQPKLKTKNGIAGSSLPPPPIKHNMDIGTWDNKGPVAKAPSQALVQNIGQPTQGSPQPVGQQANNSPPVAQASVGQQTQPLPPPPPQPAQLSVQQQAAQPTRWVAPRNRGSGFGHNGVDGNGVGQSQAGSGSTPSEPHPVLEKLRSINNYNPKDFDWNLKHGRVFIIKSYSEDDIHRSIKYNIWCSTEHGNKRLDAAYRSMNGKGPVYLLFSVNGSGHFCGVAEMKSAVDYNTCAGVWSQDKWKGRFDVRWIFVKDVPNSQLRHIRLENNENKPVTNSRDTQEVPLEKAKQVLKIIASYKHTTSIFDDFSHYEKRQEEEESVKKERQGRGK

| Structure (SMILES) | fold changes relative to vehicle control ([1]; protein PC, HeLa) | fold changes relative to vehicle control ([2]; HeLa, captured protein KPNA2) | fold changes relative to vehicle control ([3]; protein SPG11, HeLa) | fold changes relative to vehicle control [4] | fold changes relative to vehicle control [5] | fold changes relative to vehicle control [6] | other results |
| --- | --- | --- | --- | --- | --- | --- | --- |
| Nc1nc2c(c(=O)[nH]1)N(C=O)C(CNc1ccc(C(=O)N[C@@H](CCC(=O)O)C(=O)O)cc1)CN2 (stereo partly drawn) [LEU, leucovorin] | 0.8 | 1.01 | 1.3 |  |  |  |  |
| Nc1nc2[nH]cc(CCc3ccc(C(=O)N[C@@H](CCC(=O)O)C(=O)O)cc3)c2c(=O)[nH]1 [PTX, pemetrexed] |  |  |  |  |  |  | fold changes relative to vehicle control [1]: 0.69; fold changes relative to vehicle control [2]: 1; fold changes relative to vehicle control [3]: 1.38 |
| CCCCCCOc1ccc(Cc2cnc(N)nc2N)cc1 [compound 1] |  |  |  | 1.26 | 1.24 | 0.79 |  |
| CCCCCCOc1cccc(Cc2cnc(N)nc2N)c1 [compound 2] |  |  |  | 1.29 | 1.3 | 1.16 |  |
| Nc1nc2cccc(-c3ccccc3)c2n1Cc1ccc(Cl)c(Cl)c1 [compound 3] |  |  |  | 1.01 | 0.92 | 1.01 |  |
| NCCOCCOCC(=O)Nc1nc2ncc(CNc3ccc(C(=O)NC(CCC(=O)O)C(=O)O)cc3)nc2c(=O)[nH]1 (stereo not drawn) [compound 6] | 0.97 | 1.13 | 1.86 |  |  |  |  |
| NCCCNc1ccc(C(=O)NC(CCC(=O)O)C(=O)O)cc1 (stereo not drawn) [compound 7] | 1.1 | 0.99 | 1.54 |  |  |  |  |
